Data as given in US6350765B1, “Fungicidal mixtures based on amide compounds and azoles” (priority 2000, dated 2002).
Like-named read-outs stand apart in the source and are kept apart here.

Test system: Botrytis cinerea
Assay: Activity against Botrytis cinerea on bell peppers (fruit disks, protective spray)
Assay type: in vivo
Conditions: in Capsicum, 96 h, read-out: Efficacy in % of the untreated control
Method: The active ingredients, separately or together, are formulated as a 10% emulsion in a mixture of 63% by weight of cyclohexanone and 27% by weight of emulsifier, and diluted with water to the desired concentration.
Evaluation is carried out by determining the infected leaf areas in percent. These percentages are converted into efficacies. The efficacy (W) is calculated as follows using Abbot's formula: […]
α corresponds to the fungal infection of the treated plants in % and β corresponds to the fungal infection of the untreated (control) plants in % An efficacy of 0 means that the infection level of the treated plants corresponds to that of the untreated control plants; an efficacy of 100 means that the treated plants were not infected.
The expected efficacies of the mixtures of the active ingredients were determined using Colby's formula [R. S. Colby, Weeds 15, 20-22 (1967)] and compared with the observed efficacies.
Colby's formula: E=x+y−x·y/100
E expected efficacy, expressed in % of the untreated control, when using the mixture of the active ingredients A and B at the concentrations a and b x efficacy, expressed in % of the untreated control, when using active ingredient A at the concentration a y efficacy, expressed in % of the untreated control, when using active ingredient B at the concentration b Activity against Botrytis cinerea on bell peppers
Disks of green bell peppers were sprayed to runoff point with an aqueous preparation of active ingredient which had been prepared is from a stock solution comprising 10% of active ingredient, 63% of cyclohexanone and 27% of emulsifier. 2 hours after the spray coating had dried on, the fruit disks were inoculated with a spore suspension of Botrytis cinerea containing 1.7×10^6 spores per ml of a 2% strength Biomalz solution. The inoculated fruit disks were subsequently incubated in humid chambers at 18° C. for 4 days. The Botrytis infection on the diseased fruit disks was then evaluated visually.
The visually determined values for the percentage of diseased leaf areas were converted into efficacies as percentage of the untreated control. An efficacy of 0 means the same disease level as in the untreated control, an efficacy of 100 means 0% disease. The expected efficacies for active ingredient combinations were determined using Colby's formula (Colby, S. R. “Calculating synergistic and antagonistic responses of herbicide Combinations”, Weeds, 15, p. 20-22, 1967) and compared with the observed efficacies.

[1] = single active ingredient, 16 ppm in the spray liquor, green bell pepper disks, 4 days at 18° C.
[2] = single active ingredient, 31 ppm in the spray liquor, green bell pepper disks, 4 days at 18° C.

SMILES | pest or weed control at 16 ppm [1] [%] | pest or weed control at 16 ppm [%] | pest or weed control at 31 ppm [%] | pest or weed control at 31 ppm [2] [%]
CCCC1COC(Cn2cncn2)(c2ccc(Cl)cc2Cl)O1 (racemic) [Compound II.12, (±)-1-[2-(2,4-dichlorophenyl)-4-propyl-1,3-dioxolan-2-ylmethyl]-1H-1,2,4-triazole] | 0 | – | – | –
O=C(Nc1ccccc1-c1ccc(F)cc1)c1cccnc1Cl [Compound I.1] | – | 10 | 60 | –
O=C(Nc1ccccc1-c1ccc(Cl)cc1)c1cccnc1Cl [Compound I.2] | – | 80 | – | –
CC(C1CC1)C(O)(Cn1cncn1)c1ccc(Cl)cc1 (stereo not shown) [Compound II.2, 2-(4-chlorophenyl)-3-cyclopropyl-1-(1H-1,2,4-triazol-1-yl)-butan-2-ol] | 0 | – | – | 10
Fc1ccc(C2(Cn3cncn3)OC2c2ccccc2Cl)cc1 (stereo not shown) [Compound II.5, (Z)-2-(1H-1,2,4-triazol-1-ylmethyl)-2-(4-fluorophenyl)-3-(2-chlorophenyl)-oxirane] | 0 | – | – | 0
C[Si](Cn1cncn1)(c1ccc(F)cc1)c1ccc(F)cc1 [Compound II.8, bis(4-fluorophenyl)(methyl)(1H-1,2,4-triazol-1-ylmethyl)-silane] | 0 | – | – | 0
CCCN(CCOc1c(Cl)cc(Cl)cc1Cl)C(=O)n1ccnc1 [Compound II.11, N-propyl-N-[2-(2,4,^6-trichlorophenoxy)ethyl]imidazol-1-carboxamide] | – | 0 | 0 | –
CCCCC(C#N)(Cn1cncn1)c1ccc(Cl)cc1 (stereo not shown) [Compound II.17, 2-p-chlorophenyl-2-(1H-1,2,4-triazol-1-ylmethyl)hexanenitrile] | 0 | – | – | –
